Consider 12 molecules from ChEMBL document CHEMBL1129104, “Synthesis and evaluation of 2-(biphenylmethyl)glutaric acid amide derivatives as neutral endopeptidase inhibitors” (Bioorg Med Chem Lett, 1996).

For orientation: pIC50 means −log10 of the IC50, conventionally taken in molar units. Low values mean a high IC50, high ones a low IC50.

pIC50: −log10 of the molar value.

In this experiment the target is Neprilysin (Homo sapiens, UniProt P08473). Kind of experiment: In vitro inhibition of Neutral Endopeptidase.
Neprilysin, sequence (P08473 whole entry): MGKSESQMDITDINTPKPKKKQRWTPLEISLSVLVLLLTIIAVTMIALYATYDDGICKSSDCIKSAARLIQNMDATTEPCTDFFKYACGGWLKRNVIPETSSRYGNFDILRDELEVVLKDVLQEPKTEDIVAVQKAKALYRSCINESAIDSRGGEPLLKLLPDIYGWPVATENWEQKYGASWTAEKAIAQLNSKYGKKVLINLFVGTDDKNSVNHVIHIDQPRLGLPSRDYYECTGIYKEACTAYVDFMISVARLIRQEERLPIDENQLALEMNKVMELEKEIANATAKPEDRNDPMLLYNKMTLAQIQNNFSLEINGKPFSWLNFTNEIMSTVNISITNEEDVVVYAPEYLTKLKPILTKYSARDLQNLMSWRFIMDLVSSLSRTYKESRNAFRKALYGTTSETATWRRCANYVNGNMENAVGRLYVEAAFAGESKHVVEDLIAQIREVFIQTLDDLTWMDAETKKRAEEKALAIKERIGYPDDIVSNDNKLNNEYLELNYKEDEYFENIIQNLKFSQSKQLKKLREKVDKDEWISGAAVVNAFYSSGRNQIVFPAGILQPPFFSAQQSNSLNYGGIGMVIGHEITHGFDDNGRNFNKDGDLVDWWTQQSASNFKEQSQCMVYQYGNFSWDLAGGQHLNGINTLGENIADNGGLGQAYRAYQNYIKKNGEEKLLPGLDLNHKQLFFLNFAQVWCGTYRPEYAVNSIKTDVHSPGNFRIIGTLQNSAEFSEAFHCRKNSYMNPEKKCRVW
With `O=C(O)Cc1csc(NC(=O)[C@H](Cc2ccc(-c3ccccc3)cc2)C[C@H](COc2ccccc2)C(=O)O)n1`, the negative logarithm of the IC50 (pIC50) is 8.48.

Molecule `O=C(O)C(COc1ccccc1)C[C@@H](Cc1ccc(-c2ccccc2)cc1)C(=O)NCc1nn[nH]n1` (some centres not stated) gave a negative-log IC50 (pIC50) of 7.72. This pIC50 lies 0.76 log units lower than the previous one.

The molecule `O=C(O)CC[C@@H](Cc1ccc(-c2ccccc2)cc1)C(=O)Nc1nc(CC(=O)O)cs1` had a negative logarithm of the IC50 (pIC50) of 6.91.

`O=C(O)Cc1csc(NC(=O)[C@H](Cc2ccc(-c3ccccc3)cc2)C[C@@H](COc2ccccc2)C(=O)O)n1` showed a pIC50 of 9.16.

On to `O=C(O)CNC(=O)[C@H](Cc1ccc(-c2ccccc2)cc1)C[C@H](COc1ccccc1)C(=O)O`, for which the pIC50 is 8.23. This pIC50 lies 0.93 log units lower than the previous one.

`O=C(O)C(COc1ccccc1)C[C@@H](Cc1ccc(-c2ccccc2)cc1)C(=O)Nc1nnn[nH]1` (some centres not stated): the pIC50 is 8.13.

On to `CC(C[C@@H](Cc1ccc(-c2ccccc2)cc1)C(=O)Nc1nc(CC(=O)O)cs1)C(=O)O` (some centres not stated), for which the pIC50 was 7.24. This pIC50 is 0.89 log units lower than that of the molecule before.

For the molecule `COCCOCC(CC1(C(=O)N[C@H]2CC[C@@H](C(=O)O)CC2)CCCC1)C(=O)Oc1ccc2c(c1)CCC2` (some centres not stated), the pIC50 was 7.19.

For the molecule `O=C(O)CNC(=O)[C@H](Cc1ccc(-c2ccccc2)cc1)C[C@@H](COc1ccccc1)C(=O)O`, the pIC50 is 8.49. This pIC50 lies 1.30 log units higher than the previous one.

With `O=C(O)Cc1nnc(NC(=O)[C@H](Cc2ccc(-c3ccccc3)cc2)CC(COc2ccccc2)C(=O)O)s1` (some centres not stated), the negative logarithm of the IC50 (pIC50) is 7.04.

Molecule `CCCCC(C[C@@H](Cc1ccc(-c2ccccc2)cc1)C(=O)Nc1nc(CC(=O)O)cs1)C(=O)O` (stereo in doubt) had a negative logarithm of the IC50 (pIC50) of 8.01.

In the case of `CCCCC(C[C@@H](Cc1ccc(-c2ccccc2)cc1)C(=O)Nc1nc(CC(=O)O)cs1)C(=O)O` (single isomer, unassigned; isomer A), the pIC50 was 8.00.
